# Data: patent US20240261274A1, “TREATMENT OF MYC-DRIVEN CANCERS WITH GSPT1 DEGRADERS” (MONTE ROSA THERAPEUTICS, INC., priority 2021, published 2024)
# Where two headings read alike, the source gives them in different places.
# Assays:
# GSPT1 = GSPT1 (Homo sapiens, UniProt P15170+Q96SW2); assay: GSPT1 degradation immunofluorescence assay in CAL-51 cells; type: cell-based; design: endogenous in cells; host or cells: CAL-51 (DSMZ ACC302); settings: 6 hours
# Method: CAL-51 cells were purchased from DSMZ (cat. Number ACC302), sub-cultured in 90% Dulbecco's MEM (4.5 g/L glucose, Gibco 11965)+10% heat inactivated FBS (BioConcept, 2-01F1361) and incubated at 37° C., 5% CO2. For the assay, imaging microtiterplate Cell Carrier 96 Ultra (Perkin Elmer 6055302) were pre-coated with Fibronectin (Sigma F085, 30 μl at 0.2 μg/ml) in PBS (100 μl, Gibco 14190) for 45 min at room temperature, rinsed with PBS and CAL-51 cells (30K cells/well) were plated and let to adhere overnight. Cells were treated with compounds typically using a serial dilution ranging from 30 μM to 0.1 nM for 6 hours. Compounds were stored at 10 mM DMSO stocks. Vehicle (DMSO), positive (CC-885, 10 μM) and rescue controls (positive control plus 0.2 μM bortezomib) were also included at this stage. Cells were subsequently rinsed with PBS and fixed in 10% Formalin solution (50 μl, Sigma HT5011)) for 20 mins at room temperature. Following three consecutive PBS washes (100 μl), cells were permeabilized in 0.1% Triton X-100 in PBS (Sigma 93443, 50 μl) for 15 mins at room temperature. Following three further PBS washes, 50 μl blocking buffer (1% BSA, Sigma A4503, in PBS) was added for 45 min for signal-to-noise reduction. Primary antibody (human GSPT1, Sigma HPA052488) was diluted in blocking buffer (dil. 1/300, 35 μl/well) and incubated with the cells overnight at 4° C. After three PBS washes, Alexa-fluor 488 coupled secondary antibodies (Invitrogen, A32731, dil. 1/1000), Alexa-fluor 647-Phalloidin (Invitrogen, A22287, dil. 1/200) and DAPI (Thermo, #62248, dil. 1/1000) were diluted in blocking buffer and incubated with the samples for 2 hours at room temperature. After three final PBS washes, samples were conserved in 100 μl PBS in the dark, until measurement. Image acquisition was performed on the Operetta High-Content Imager (Perkin-Elmer). Fluorescence intensity of Alexa-Fluor 488 (GSPT1), Alexa-Fluor 647 (Actin) and DAPI (Nucleus) were measured. For the determination of GSPT1 DC50 values, a custom algorithm implemented in the PerkinElmer image analysis software Harmony-Acapella® was developed. After user-defined setting of adjustment parameters, the analysis was run identically without human intervention for all image fields. DAPI staining of the nuclei was used to determine the location of cells using standard nuclei detection modules. Segmentation artifacts were removed by threshold-based filters for area, roundness and intensity. The outline of the cells was determined analogously from the sum of the normalized, smoothed DAPI and Actin channel, starting from each nucleus. The Alexa-Fluor 488 (GSPT1) signal intensity in each cell was finally measured, in order to obtain a Mean intensity per cell. GSPT1 degradation (DC50) was calculated after normalization to controls and data import in CDD vault Database, using non-linear regression.
# [1] = biological target: T1, Full length wild-type cereblon CRBN (Homo sapiens, UniProt Q96SW2); assay: Fluorescence polarization (FP) assay indicating cereblon binding
# T1 construct: Full length wild-type cereblon CRBN (80.0 nM, 10 μL) was incubated in assay buffer
# T1 sequence (Q96SW2 whole entry): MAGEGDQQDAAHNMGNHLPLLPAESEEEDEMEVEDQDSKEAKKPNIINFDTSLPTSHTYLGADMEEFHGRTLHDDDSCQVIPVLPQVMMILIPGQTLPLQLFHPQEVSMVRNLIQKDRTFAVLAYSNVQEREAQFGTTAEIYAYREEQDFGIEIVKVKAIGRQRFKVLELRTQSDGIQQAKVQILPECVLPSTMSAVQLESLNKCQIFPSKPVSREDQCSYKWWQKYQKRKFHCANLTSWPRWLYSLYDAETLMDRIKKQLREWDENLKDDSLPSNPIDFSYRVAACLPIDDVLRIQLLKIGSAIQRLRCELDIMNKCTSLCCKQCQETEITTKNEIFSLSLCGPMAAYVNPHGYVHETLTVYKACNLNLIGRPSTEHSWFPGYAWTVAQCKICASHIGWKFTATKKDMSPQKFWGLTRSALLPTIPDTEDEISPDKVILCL
# Method: Compound activity was monitored in a fluorescence polarization (FP) homogeneous assay using 1-[5-({2-[2-(2-{[2-(2,6-dioxopiperidin-3-yl)-1,3-dioxo-2,3-dihydro-1H-isoindol-4-yl]oxy}acetamido)ethoxy]ethyl}carbamoyl)pentyl]-3,3-dimethyl-2-[(1E,3E)-5-[(2E)-1,3,3-trimethyl-5-sulfo-2,3-dihydro-1H-indol-2-ylidene]penta-1,3-dien-1-yl]-3H-indol-1-ium-5-sulfonate as a fluorescent probe. Unless otherwise stated, all reagents were purchased from Sigma Aldrich. Enzymatic reactions were conducted in Perkin-Elmer Black 384 well ProxiPlate Plus (catalogue no. 6008269) in 10 μL total volume. Full length wild-type cereblon CRBN (80.0 nM, 10 μL) was incubated in assay buffer containing 20 mM HEPES (pH 8.0), […], 0.5 mM TCEP and 0.05% Tween 20 in the presence or absence of compound (300 nL). Inhibitors were stored as 10 mM DMSO stocks in an inert environment (low humidity, dark, low oxygen, room temperature) using the Storage Pod System. Compounds and DMSO were dispensed using the Echo E5XX (Labcyte Inc. USA) to give concentrations from 300 to 0.937 or 3000 to 9.3 nM in a 12 data point curve. […] Following incubation at room temperature for 30 min, the assay was initiated by dispensing the probe to a final concentration of 5 nM (2.5 nL of a 20 μM stock) using the Echo E5XX. FP was measured after a period of 12 hours using a Pherastar plate reader (BMG Labtech, Germany) exciting at 590 nm and measuring the amount of parallel and perpendicular light at 675 nm. The FP signal was subsequently normalized to the no-compound control (i.e., DMSO). Analysis and IC50 values were derived using Dotmatics (Dotmatics UK) software.
# [2] = Table 4, read-out: Activity for GSPT1 degradation, Code (DC50)
# [3] = bound stated, read-out: IC50 value
# [4] = Table 5B, read-out: Activity for GSPT1 degradation, Code (DC50)
# Sequence of GSPT1 (P15170 whole entry): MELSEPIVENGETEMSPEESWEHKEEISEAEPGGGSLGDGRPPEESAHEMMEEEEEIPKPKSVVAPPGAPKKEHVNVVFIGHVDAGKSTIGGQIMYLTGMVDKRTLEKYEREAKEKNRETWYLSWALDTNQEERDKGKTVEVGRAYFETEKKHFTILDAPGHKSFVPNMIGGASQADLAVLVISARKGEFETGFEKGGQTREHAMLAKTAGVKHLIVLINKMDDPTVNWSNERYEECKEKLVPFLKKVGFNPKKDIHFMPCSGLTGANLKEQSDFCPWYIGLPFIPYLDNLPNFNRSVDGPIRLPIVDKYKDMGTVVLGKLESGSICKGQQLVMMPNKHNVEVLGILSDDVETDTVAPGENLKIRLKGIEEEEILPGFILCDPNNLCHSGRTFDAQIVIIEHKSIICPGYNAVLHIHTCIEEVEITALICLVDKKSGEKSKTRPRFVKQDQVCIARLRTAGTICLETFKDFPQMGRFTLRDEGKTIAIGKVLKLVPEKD
# Sequence of GSPT1 (Q96SW2 whole entry): as the sequence (Q96SW2 whole entry) above
# Sequence of GSPT1 (Q16531 whole entry partner): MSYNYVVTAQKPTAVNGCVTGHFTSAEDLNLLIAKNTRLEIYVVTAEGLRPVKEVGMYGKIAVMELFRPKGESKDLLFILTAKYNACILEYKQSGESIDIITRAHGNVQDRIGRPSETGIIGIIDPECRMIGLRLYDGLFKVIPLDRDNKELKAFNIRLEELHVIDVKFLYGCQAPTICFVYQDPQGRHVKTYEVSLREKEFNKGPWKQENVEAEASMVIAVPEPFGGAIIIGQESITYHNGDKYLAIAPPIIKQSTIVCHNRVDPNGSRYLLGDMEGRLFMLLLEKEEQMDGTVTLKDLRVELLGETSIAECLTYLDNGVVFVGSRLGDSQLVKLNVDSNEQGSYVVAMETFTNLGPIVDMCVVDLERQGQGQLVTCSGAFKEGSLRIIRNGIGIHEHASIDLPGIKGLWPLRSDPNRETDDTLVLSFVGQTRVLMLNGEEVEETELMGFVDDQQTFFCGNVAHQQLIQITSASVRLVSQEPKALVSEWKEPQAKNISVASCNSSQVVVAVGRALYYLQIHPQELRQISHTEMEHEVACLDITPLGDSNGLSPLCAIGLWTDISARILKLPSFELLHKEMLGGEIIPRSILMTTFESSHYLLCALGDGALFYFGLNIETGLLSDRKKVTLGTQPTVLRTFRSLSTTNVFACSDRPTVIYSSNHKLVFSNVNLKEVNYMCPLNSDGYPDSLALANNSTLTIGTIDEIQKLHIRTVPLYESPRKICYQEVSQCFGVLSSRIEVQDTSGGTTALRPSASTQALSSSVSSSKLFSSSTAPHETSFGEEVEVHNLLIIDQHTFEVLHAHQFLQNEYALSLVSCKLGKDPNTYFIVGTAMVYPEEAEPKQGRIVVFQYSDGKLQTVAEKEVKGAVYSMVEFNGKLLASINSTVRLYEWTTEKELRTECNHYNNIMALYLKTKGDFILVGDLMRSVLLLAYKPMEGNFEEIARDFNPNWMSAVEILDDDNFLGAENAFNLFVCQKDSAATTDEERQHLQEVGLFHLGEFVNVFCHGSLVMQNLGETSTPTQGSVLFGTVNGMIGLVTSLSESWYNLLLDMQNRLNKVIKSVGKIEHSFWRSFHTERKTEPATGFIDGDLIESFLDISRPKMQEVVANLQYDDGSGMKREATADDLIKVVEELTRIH
Compound,DC50 (GSPT1; [2]),"IC50 [1, 3]",DC50 (GSPT1; [4]),"IC50 ([1]; Table 3B, read-out: rFP IC50)"
CN(C)CC(=O)Oc1cccc(CNC(=O)NCc2ccc3c(c2)C(=O)N(C2CCC(=O)NC2=O)C3)c1 (centres unmarked) [Compound 136],> 300 nM,< 1100 nM,,
Cc1c(Cl)cc(NC(=O)NCc2ccc3c(c2)C(=O)N(C2CCC(=O)NC2=O)C3)cc1CN1CC2CC1CO2 (centres unmarked) [Compound 139],≤ 100 nM,< 1100 nM,,
CC(C)(C)c1ccc(NC(=O)OCc2cc(F)c3c(c2)C(=O)N(C2CCC(=O)NC2=O)C3)cn1 (centres unmarked) [Compound 509],,,≤ 30 nM,1200 to 1900 nM
CC(C)(C)c1ccc(NC(=O)OCc2cc(F)c3c(c2)C(=O)N(C2CCC(=O)NC2=O)C3)cc1 (centres unmarked) [Compound 510],,,30 to 300 nM,> 1900 nM
O=C1CCC(N2Cc3c(F)cc(COC(=O)Nc4ccc(F)c(OC(F)(F)F)c4)cc3C2=O)C(=O)N1 (centres unmarked) [Compound 514],,,30 to 300 nM,> 1900 nM
CC1(C)COc2cc(NC(=O)OCc3cc(F)c4c(c3)C(=O)N(C3CCC(=O)NC3=O)C4)ccc21 (centres unmarked) [Compound 517],,,≤ 30 nM,≤ 600 nM
Cc1cc(NC(=O)OCc2cc(F)c3c(c2)C(=O)N(C2CCC(=O)NC2=O)C3)cnc1-c1ccccc1 (centres unmarked) [Compound 520],,,≤ 30 nM,600 to 1200 nM
O=C1CCC(N2Cc3c(F)cc(COC(=O)Nc4ccc(C5CCC5)cc4)cc3C2=O)C(=O)N1 (centres unmarked) [Compound 522],,,≤ 30 nM,> 1900 nM
C[C@@H]1CCCN1c1ccc(NC(=O)OCc2cc(F)c3c(c2)C(=O)N(C2CCC(=O)NC2=O)C3)cn1 (some centres unmarked) [Compound 523],,,≤ 30 nM,600 to 1200 nM
Cc1cc(Cl)cc(NC(=O)OCc2cc(F)c3c(c2)C(=O)N(C2CCC(=O)NC2=O)C3)c1 (centres unmarked) [Compound 527],,,30 to 300 nM,1200 to 1900 nM
O=C1CCC(N2Cc3c(F)cc(COC(=O)Nc4ccc(-c5ccccc5F)c(F)c4)cc3C2=O)C(=O)N1 (centres unmarked) [Compound 529],,,≤ 30 nM,> 1900 nM
O=C1CCC(N2Cc3c(F)cc(COC(=O)Nc4cc(F)c(-c5ccccc5)c(F)c4)cc3C2=O)C(=O)N1 (centres unmarked) [Compound 530],,,30 to 300 nM,> 1900 nM
O=C1CCC(N2Cc3c(F)cc(COC(=O)Nc4ccc(F)c(Cl)c4)cc3C2=O)C(=O)N1 (centres unmarked) [Compound 532],,,30 to 300 nM,> 1900 nM
O=C1CCC(N2Cc3c(F)cc(COC(=O)Nc4cc(F)cc(Cl)c4)cc3C2=O)C(=O)N1 (centres unmarked) [Compound 533],,,30 to 300 nM,> 1900 nM
COc1cc(COC(=O)Nc2ccc(F)c(OC(F)(F)F)c2)cc2c1CN(C1CCC(=O)NC1=O)C2=O (centres unmarked) [Compound 539],,,≤ 30 nM,1200 to 1900 nM
COc1cc(COC(=O)Nc2cc(F)cc(OC(F)F)c2)cc2c1CN(C1CCC(=O)NC1=O)C2=O (centres unmarked) [Compound 547],,,≤ 30 nM,600 to 1200 nM

Compound,DC50 (GSPT1; [2]),"IC50 [1, 3]",DC50 (GSPT1; [4]),"IC50 ([1]; Table 3B, read-out: rFP IC50)"
COc1cc(COC(=O)Nc2cccc(OC(F)F)c2)cc2c1CN(C1CCC(=O)NC1=O)C2=O (centres unmarked) [Compound 553],,,,≤ 600 nM
COc1cc(COC(=O)Nc2cccc(C(C)(C)C)c2)cc2c1CN(C1CCC(=O)NC1=O)C2=O (centres unmarked) [Compound 554],,,,≤ 600 nM
COc1cc(COC(=O)Nc2cc(-c3ccccc3)ccn2)cc2c1CN(C1CCC(=O)NC1=O)C2=O (centres unmarked) [Compound 556],,,,≤ 600 nM
COc1cc(COC(=O)Nc2ccc(C3CCC3)cc2)cc2c1CN(C1CCC(=O)NC1=O)C2=O (centres unmarked) [Compound 557],,,≤ 30 nM,≤ 600 nM
COc1cc(COC(=O)Nc2cccc(OC3CC3)c2)cc2c1CN(C1CCC(=O)NC1=O)C2=O (centres unmarked) [Compound 558],,,,≤ 600 nM
COc1cc(COC(=O)Nc2cnc(-c3ccccc3)c(C)c2)cc2c1CN(C1CCC(=O)NC1=O)C2=O (centres unmarked) [Compound 559],,,,≤ 600 nM
COc1cc(COC(=O)Nc2ccc(-c3ccccc3C)nc2)cc2c1CN(C1CCC(=O)NC1=O)C2=O (centres unmarked) [Compound 560],,,,≤ 600 nM
O=C1CCC(N2Cc3c(F)cc(COC(=O)Nc4cc(F)c(F)c(Cl)c4)cc3C2=O)C(=O)N1 (centres unmarked) [Compound 561],,,≤ 30 nM,> 1900 nM
COc1cc(COC(=O)Nc2ccc(N3CCC[C@@H]3C)nc2)cc2c1CN(C1CCC(=O)NC1=O)C2=O (some centres unmarked) [Compound 562],,,30 to 300 nM,≤ 600 nM
COc1cc(COC(=O)Nc2cc(OC(F)(F)F)ccc2F)cc2c1CN(C1CCC(=O)NC1=O)C2=O (centres unmarked) [Compound 566],,,> 300 nM,
COc1cc(COC(=O)Nc2cc(C)cc(F)c2)cc2c1CN(C1CCC(=O)NC1=O)C2=O (centres unmarked) [Compound 567],,,≤ 30 nM,
COc1c(COC(=O)Nc2ccc(C)c(Cl)c2)ccc2c1C(=O)N(C1CCC(=O)NC1=O)C2 (centres unmarked) [Compound 570],,,> 300 nM,> 1900 nM
Cc1ccc(NC(=O)OCc2ccc3c(c2F)C(=O)N(C2CCC(=O)NC2=O)C3)cc1Cl (centres unmarked) [Compound 571],,,,> 1900 nM
Cc1ccc(NC(=O)OCc2ccc3c(c2Cl)C(=O)N(C2CCC(=O)NC2=O)C3)cc1Cl (centres unmarked) [Compound 572],,,> 300 nM,> 1900 nM
Cc1ccc(NC(=O)OCc2ccc3c(c2C)C(=O)N(C2CCC(=O)NC2=O)C3)cc1Cl (centres unmarked) [Compound 573],,,> 300 nM,≤ 600 nM
